Values joined by “and” are separate entries in the source; they are usually repeats but may differ in a detail not shown here. Equal entries are not always repeated. Toxic doses and inconclusive results are not listed. The calls were made as follows: active = survival T/C of 150% or more; inactive = T/C below 125% in these data.
Test system: CD2F1 mice, L1210 leukemia ip, survival T/C
Assay: NCI In Vivo Anticancer Drug Screen. Data for tumor model L1210 Leukemia (intraperitoneal) in CD2F1 (CDF1) mice
Conditions: higher = longer survival
Outline: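 Ratio T/C, where T is the treated-group value and C the vehicle-dosed control value, from mice implanted with a transplantable tumor.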

[1] = endpoint: mean survival time, dose: 100.0 mg/kg/injection, schedule: Q04DX003 (ip), vehicle: saline with Tween-80
[2] = endpoint: mean survival time, dose: 200.0 mg/kg/injection, schedule: Q04DX003 (ip), vehicle: saline with Tween-80
[3] = endpoint: mean survival time, dose: 400.0 mg/kg/injection, schedule: Q04DX003 (ip), vehicle: saline with Tween-80

Measured: T/C

N#C[C@H](OC1OC(COC2OC(CO)C(O)C(O)C2O)C(O)C(O)C1O)c1ccccc1 (stereo partly drawn)
inactive: endpoint: mean survival time, dose: 25.0 mg/kg/injection, schedule: Q01DX009 (ip), vehicle: saline 98 % of control | endpoint: mean survival time, dose: 25.0 mg/kg/injection, schedule: Q01DX009 (ip), vehicle: water 96 % of control | endpoint: mean survival time, dose: 50.0 mg/kg/injection, schedule: Q01DX009 (ip), vehicle: saline 97 % of control | endpoint: mean survival time, dose: 50.0 mg/kg/injection, schedule: Q01DX009 (ip), vehicle: water 103 % of control | endpoint: mean survival time, dose: 100.0 mg/kg/injection, schedule: Q01DX009 (ip), vehicle: saline 101 % of control | endpoint: mean survival time, dose: 100.0 mg/kg/injection, schedule: Q01DX009 (ip), vehicle: water 96 % of control | endpoint: mean survival time, dose: 200.0 mg/kg/injection, schedule: Q01DX009 (ip), vehicle: saline 104 % of control | endpoint: mean survival time, dose: 200.0 mg/kg/injection, schedule: Q01DX009 (ip), vehicle: water 96 % of control | endpoint: mean survival time, dose: 400.0 mg/kg/injection, schedule: Q01DX009 (ip), vehicle: saline 98 % of control | endpoint: mean survival time, dose: 400.0 mg/kg/injection, schedule: Q01DX009 (ip), vehicle: water 105 % of control | endpoint: mean survival time, dose: 800.0 mg/kg/injection, schedule: Q01DX009 (ip), vehicle: saline 107 % of control | endpoint: mean survival time, dose: 800.0 mg/kg/injection, schedule: Q01DX009 (ip), vehicle: water 102 % of control

CCN(CC)c1nc(Cl)nc(NC(C)C)n1
inactive: endpoint: mean survival time, dose: 100.0 mg/kg/injection, schedule: Q01DX009 (ip), vehicle: saline with Tween-80 100 % of control | endpoint: mean survival time, dose: 100.0 mg/kg/injection, schedule: Q04DX003 (ip), vehicle: saline 103 % of control | endpoint: mean survival time, dose: 200.0 mg/kg/injection, schedule: Q01DX009 (ip), vehicle: saline with Tween-80 101 % of control | endpoint: mean survival time, dose: 200.0 mg/kg/injection, schedule: Q04DX003 (ip), vehicle: saline 100 % of control | endpoint: mean survival time, dose: 400.0 mg/kg/injection, schedule: Q01DX009 (ip), vehicle: saline with Tween-80 94 % of control | endpoint: mean survival time, dose: 400.0 mg/kg/injection, schedule: Q04DX003 (ip), vehicle: saline 103 % of control

CC(C)(C)OC(=O)Nc1cccc(O)c1
inactive: [1] 100 % of control | [2] 96 % of control | [3] 93 % of control

CC(=O)OC1C2CCC(C2)C1C (stereo not drawn)
inactive: [1] 95 % of control | [2] 92 % of control | [3] 92 % of control

CN=C(N)/N=C(\N)C(Cl)(Cl)Cl
inactive: endpoint: mean survival time, dose: 100.0 mg/kg/injection, schedule: Q01DX001 (ip), vehicle: saline 111 % of control | endpoint: mean survival time, dose: 200.0 mg/kg/injection, schedule: Q01DX001 (ip), vehicle: saline 86 % of control | endpoint: mean survival time, dose: 400.0 mg/kg/injection, schedule: Q01DX001 (ip), vehicle: saline 90 % of control

CCCCOC(=O)C(C)OC(=O)Nc1cccc(Cl)c1 (stereo not drawn)
inactive: [1] 100 % of control | [2] 101 % of control | [3] 97 % of control

C/C(=N\NS(=O)(=O)c1ccc(C)cc1)c1ccccc1
inactive: endpoint: mean survival time, dose: 100.0 mg/kg/injection, schedule: Q04DX002 (ip), vehicle: saline with Tween-80 108 % of control | endpoint: mean survival time, dose: 200.0 mg/kg/injection, schedule: Q04DX002 (ip), vehicle: saline with Tween-80 96 % of control | endpoint: mean survival time, dose: 400.0 mg/kg/injection, schedule: Q04DX002 (ip), vehicle: saline with Tween-80 103 % of control

Cn1c(=O)c2c(ncn2CCCNCC(O)c2ccc(O)c(CO)c2)n(C)c1=O (stereo not drawn)
inactive: endpoint: mean survival time, dose: 12.5 mg/kg/injection, schedule: Q01DX005 (ip), vehicle: water 96 % of control | endpoint: mean survival time, dose: 25.0 mg/kg/injection, schedule: Q01DX005 (ip), vehicle: water 96 % of control | endpoint: mean survival time, dose: 50.0 mg/kg/injection, schedule: Q01DX005 (ip), vehicle: water 100 % of control | endpoint: mean survival time, dose: 100.0 mg/kg/injection, schedule: Q01DX005 (ip), vehicle: water 96 % of control | endpoint: mean survival time, dose: 200.0 mg/kg/injection, schedule: Q01DX005 (ip), vehicle: water 98 % of control

CC(=O)OCC(OC(C)=O)C(OC(C)=O)C(OC(C)=O)C(COC(=O)c1ccccc1)OC(=O)c1ccccc1 (stereo not drawn)
inactive: endpoint: mean survival time, dose: 100.0 mg/kg/injection, schedule: Q01DX001 (ip), vehicle: saline with Tween-80 96 % of control | endpoint: mean survival time, dose: 200.0 mg/kg/injection, schedule: Q01DX001 (ip), vehicle: saline with Tween-80 100 % of control | endpoint: mean survival time, dose: 400.0 mg/kg/injection, schedule: Q01DX001 (ip), vehicle: saline with Tween-80 96 % of control

Cc1c2ccccc2cc2c1ccc1cccc(F)c12
inactive: endpoint: median survival time, dose: 12.5 mg/kg/injection, schedule: Q04DX003 (ip), vehicle: saline with Tween-80 100 % of control | endpoint: median survival time, dose: 25.0 mg/kg/injection, schedule: Q04DX003 (ip), vehicle: saline with Tween-80 100 % of control | endpoint: median survival time, dose: 50.0 mg/kg/injection, schedule: Q04DX003 (ip), vehicle: saline with Tween-80 100 % of control

O=C(O)C(O)C(O)C(OC1OC(CO)C(O)C(O)C1O)C(O)CO.[Br][Pt].[NH-]C1CCCCC1[NH-] (stereo not drawn)
active: endpoint: median survival time, dose: 6.25 mg/kg/injection, schedule: Q04DX003 (ip), vehicle: saline 158 % of control | endpoint: median survival time, dose: 12.5 mg/kg/injection, schedule: Q04DX003 (ip), vehicle: saline 175 % of control | endpoint: median survival time, dose: 25.0 mg/kg/injection, schedule: Q04DX003 (ip), vehicle: saline 163 % of control and 212 % of control | endpoint: median survival time, dose: 50.0 mg/kg/injection, schedule: Q04DX003 (ip), vehicle: saline 178 % of control and 200 % of control
